What was measured:
Type in all cases: functional
HCT-116 [1] = experiment: Growth inhibition of human HCT116 cells assessed as cell growth at 5X10'-9 M after 48 hrs by sulforhodamine B assay; settings: HCT-116, 48 h, read-out: Activity
SNB-75 [2] = experiment: Growth inhibition of human SNB75 cells assessed as cell growth at 5X10'-5 M after 48 hrs by sulforhodamine B assay; settings: SNB-75, 48 h, read-out: Activity
SNB-19 = experiment: Growth inhibition of human SNB19 cells assessed as cell growth at 5X10'-5 M after 48 hrs by sulforhodamine B assay; settings: SNB-19, 48 h, read-out: Activity
A549 [3] = experiment: Growth inhibition of human A549/ATCC cells assessed as cell growth at 5X10'-5 M after 48 hrs by sulforhodamine B assay; settings: A549, 48 h, read-out: Activity
MOLT-4 = experiment: Growth inhibition of human MOLT4 cells assessed as cell growth at 5X10'-5 M after 48 hrs by sulforhodamine B assay; settings: MOLT-4, 48 h, read-out: Activity
MCF7 = experiment: Growth inhibition of human MCF7 cells assessed as cell growth at 5X10'-6 M after 48 hrs by sulforhodamine B assay; settings: MCF7, 48 h, read-out: Activity
OVCAR-5 [4] = experiment: Growth inhibition of human OVCAR5 cells assessed as cell growth at 5X10'-6 M after 48 hrs by sulforhodamine B assay; settings: OVCAR-5, 48 h, read-out: Activity
NCI-H23 = experiment: Growth inhibition of human NCI-H23 cells assessed as cell growth at 5X10'-9 M after 48 hrs by sulforhodamine B assay; settings: NCI-H23, 48 h, read-out: Activity
A549 [5] = experiment: Growth inhibition of human A549/ATCC cells assessed as cell growth at 5X10'-9 M after 48 hrs by sulforhodamine B assay; settings: A549, 48 h, read-out: Activity
SF-295 [6] = experiment: Growth inhibition of human SF295 cells assessed as cell growth at 5X10'-6 M after 48 hrs by sulforhodamine B assay; settings: SF-295, 48 h, read-out: Activity
HCT-15 = experiment: Growth inhibition of human HCT15 cells assessed as cell growth at 5X10'-6 M after 48 hrs by sulforhodamine B assay; settings: HCT-15, 48 h, read-out: Activity
K562 [7] = experiment: Growth inhibition of human K562 cells assessed as cell growth at 5X10'-6 M after 48 hrs by sulforhodamine B assay; settings: K562, 48 h, read-out: Activity
CCRF-CEM [8] = experiment: Growth inhibition of human CCRF-CEM cells assessed as cell growth at 5X10'-6 M after 48 hrs by sulforhodamine B assay; settings: read-out: Activity
SK-OV-3 = experiment: Growth inhibition of human SKOV3 cells assessed as cell growth at 5X10'-7 M after 48 hrs by sulforhodamine B assay; settings: SK-OV-3, 48 h, read-out: Activity
[9] = Growth inhibition of human NCI-ADR-RES cells assessed as cell growth at 5X10'-7 M after 48 hrs by sulforhodamine B assay; settings: read-out: Activity
SF-539 = experiment: Growth inhibition of human SF539 cells assessed as cell growth at 5X10'-7 M after 48 hrs by sulforhodamine B assay; settings: SF-539, 48 h, read-out: Activity
SF-295 [10] = experiment: Growth inhibition of human SF295 cells assessed as cell growth at 5X10'-7 M after 48 hrs by sulforhodamine B assay; settings: SF-295, 48 h, read-out: Activity
HCT-116 [11] = experiment: Growth inhibition of human HCT116 cells assessed as cell growth at 5X10'-7 M after 48 hrs by sulforhodamine B assay; settings: HCT-116, 48 h, read-out: Activity
A549 [12] = experiment: Growth inhibition of human A549/ATCC cells assessed as cell growth at 5X10'-7 M after 48 hrs by sulforhodamine B assay; settings: A549, 48 h, read-out: Activity
CCRF-CEM [13] = experiment: Growth inhibition of human CCRF-CEM cells assessed as cell growth at 5X10'-7 M after 48 hrs by sulforhodamine B assay; settings: read-out: Activity
MDA-MB-468 = experiment: Growth inhibition of human MDA-MB-468 cells assessed as cell growth at 5X10'-8 M after 48 hrs by sulforhodamine B assay; settings: MDA-MB-468, 48 h, read-out: Activity
T47D = experiment: Growth inhibition of human T47D cells assessed as cell growth at 5X10'-8 M after 48 hrs by sulforhodamine B assay; settings: read-out: Activity
BT-549 [14] = experiment: Growth inhibition of human BT549 cells assessed as cell growth at 5X10'-8 M after 48 hrs by sulforhodamine B assay; settings: BT-549, 48 h, read-out: Activity
TK-10 = experiment: Growth inhibition of human TK10 cells assessed as cell growth at 5X10'-8 M after 48 hrs by sulforhodamine B assay; settings: TK-10, 48 h, read-out: Activity
OVCAR-5 [15] = experiment: Growth inhibition of human OVCAR5 cells assessed as cell growth at 5X10'-8 M after 48 hrs by sulforhodamine B assay; settings: OVCAR-5, 48 h, read-out: Activity
OVCAR-4 = experiment: Growth inhibition of human OVCAR4 cells assessed as cell growth at 5X10'-8 M after 48 hrs by sulforhodamine B assay; settings: OVCAR-4, 48 h, read-out: Activity
SK-MEL-2 [16] = experiment: Growth inhibition of human SK-MEL-2 cells assessed as cell growth at 5X10'-8 M after 48 hrs by sulforhodamine B assay; settings: SK-MEL-2, 48 h, read-out: Activity
M14 = experiment: Growth inhibition of human M14 cells assessed as cell growth at 5X10'-8 M after 48 hrs by sulforhodamine B assay; settings: M14, 48 h, read-out: Activity
BT-549 [17] = experiment: Growth inhibition of human BT549 cells assessed as cell growth at 5X10'-5 M after 48 hrs by sulforhodamine B assay; settings: BT-549, 48 h, read-out: Activity
[18] = Growth inhibition of human Hs 578T cells assessed as cell growth at 5X10'-5 M after 48 hrs by sulforhodamine B assay; settings: read-out: Activity
UO-31 = experiment: Growth inhibition of human UO31 cells assessed as cell growth at 5X10'-5 M after 48 hrs by sulforhodamine B assay; settings: UO-31, 48 h, read-out: Activity
CAKI-1 = experiment: Growth inhibition of human CAKI-1 cells assessed as cell growth at 5X10'-5 M after 48 hrs by sulforhodamine B assay; settings: CAKI-1, 48 h, read-out: Activity
OVCAR-8 = experiment: Growth inhibition of human OVCAR8 cells assessed as cell growth at 5X10'-5 M after 48 hrs by sulforhodamine B assay; settings: OVCAR-8, 48 h, read-out: Activity
K562 [19] = experiment: Growth inhibition of human K562 cells assessed as cell growth at 5X10'-8 M after 48 hrs by sulforhodamine B assay; settings: K562, 48 h, read-out: Activity
CCRF-CEM [20] = experiment: Growth inhibition of human CCRF-CEM cells assessed as cell growth at 5X10'-8 M after 48 hrs by sulforhodamine B assay; settings: read-out: Activity
SK-MEL-2 [21] = experiment: Growth inhibition of human SK-MEL-2 cells assessed as cell growth at 5X10'-9 M after 48 hrs by sulforhodamine B assay; settings: SK-MEL-2, 48 h, read-out: Activity
LOX IMVI = experiment: Growth inhibition of human LOXIMVI cells assessed as cell growth at 5X10'-9 M after 48 hrs by sulforhodamine B assay; settings: read-out: Activity
SNB-75 [22] = experiment: Growth inhibition of human SNB75 cells assessed as cell growth at 5X10'-9 M after 48 hrs by sulforhodamine B assay; settings: SNB-75, 48 h, read-out: Activity

Row | SMILES | growth at 0.005 µM (HCT-116 [1]) [%] | growth at 50 µM (SNB-75 [2]) [%] | growth at 50 µM (SNB-19) [%] | growth at 50 µM (A549 [3]) [%] | growth at 50 µM (MOLT-4) [%] | growth at 5 µM (MCF7) [%] | growth at 5 µM (OVCAR-5 [4]) [%] | growth at 0.005 µM (NCI-H23) [%] | growth at 0.005 µM (A549 [5]) [%] | growth at 5 µM (SF-295 [6]) [%] | growth at 5 µM (HCT-15) [%] | growth at 5 µM (K562 [7]) [%] | growth at 5 µM (CCRF-CEM [8]) [%] | growth at 0.5 µM (SK-OV-3) [%] | growth at 0.5 µM [9] [%] | growth at 0.5 µM (SF-539) [%] | growth at 0.5 µM (SF-295 [10]) [%] | growth at 0.5 µM (HCT-116 [11]) [%] | growth at 0.5 µM (A549 [12]) [%] | growth at 0.5 µM (CCRF-CEM [13]) [%] | further results
1 | COc1cc(-c2nn(-c3cccc(NC(=O)Nc4cc(C(F)(F)F)cc(C(F)(F)F)c4)c3)cc2-c2ccncc2)ccc1Cl | 101 | -62 | -40 | -65 | -11 | 2 | -36 | 99 | 96 | -71 | -57 | -10 | -17 | 95 | 72 | 85 | 45 | 62 | 52 | 50 | growth at 0.05 µM (MDA-MB-468): 85%; growth at 0.05 µM (T47D): 104%; growth at 0.05 µM (BT-549 [14]): 102%; growth at 0.05 µM (TK-10): 98%; growth at 0.05 µM (OVCAR-5 [15]): 87%; growth at 0.05 µM (OVCAR-4): 92%; growth at 0.05 µM (SK-MEL-2 [16]): 115%; growth at 0.05 µM (M14): 107%; growth at 50 µM (BT-549 [17]): -57%; growth at 50 µM [18]: -10%; growth at 50 µM (UO-31): -93%; growth at 50 µM (CAKI-1): -50%; growth at 50 µM (OVCAR-8): -11%; growth at 0.05 µM (K562 [19]): 99%; growth at 0.05 µM (CCRF-CEM [20]): 94%; growth at 0.005 µM (SK-MEL-2 [21]): 111%; growth at 0.005 µM (LOX IMVI): 101%; growth at 0.005 µM (SNB-75 [22]): 94%
2 | COc1cc(-c2nn(-c3cccc(NC(=O)Nc4ccc(Cl)c(Cl)c4)c3)cc2-c2ccncc2)ccc1Cl | 105 | -15 | 15 | 3 | -19 | 2 | 27 | 97 | 98 | -26 | 10 | 5 | -2 | 105 | 72 | 78 | 62 | 78 | 60 | 74 | growth at 0.05 µM (MDA-MB-468): 84%; growth at 0.05 µM (T47D): 101%; growth at 0.05 µM (BT-549 [14]): 104%; growth at 0.05 µM (TK-10): 103%; growth at 0.05 µM (OVCAR-5 [15]): 90%; growth at 0.05 µM (OVCAR-4): 94%; growth at 0.05 µM (SK-MEL-2 [16]): 112%; growth at 0.05 µM (M14): 100%; growth at 50 µM (BT-549 [17]): -3%; growth at 50 µM [18]: 4%; growth at 50 µM (UO-31): -11%; growth at 50 µM (CAKI-1): -13%; growth at 50 µM (OVCAR-8): -16%; growth at 0.05 µM (K562 [19]): 103%; growth at 0.05 µM (CCRF-CEM [20]): 98%; growth at 0.005 µM (SK-MEL-2 [21]): 109%; growth at 0.005 µM (LOX IMVI): 97%; growth at 0.005 µM (SNB-75 [22]): 86%

Reference: ChEMBL document CHEMBL2440076, “New triarylpyrazoles as broad-spectrum anticancer agents: design, synthesis, and biological evaluation” (Eur J Med Chem, 2013)
